According to US20230405140A1, “ANTI-CD56 ANTIBODY-DRUG CONJUGATES AND THEIR USE IN THERAPY” (MCSAF INSIDE ONCOLOGY, priority 2020, published 2023):
Non-standard residues stand in square brackets, D forms with d. Residues, ends and D or L forms follow the SMILES beside them. *: point of attachment. Dolaproine = CO[C@@H]([C@@H]1CCCN1)[C@@H](C)C(=O)O; Dil = CC[C@H](C)[C@H](NC)[C@@H](CC(=O)O)OC; X1 = C[C@@H](N*)[C@@H](O)c1ccccc1; NMeV = CN[C@H](C(=O)O)C(C)C

Key:
Test in all cases: XTT assay, ADC-mediated cytotoxicity
Assay type in all cases: cell-based
[1] = test system: MKL-1 CRISPR CD56; conditions: 4 days, CD56− cells, read-out: MKL-1 CRISPR CD56 n = 3 IC50
[2] = test system: WaGa CRISPR CD56; conditions: 4 days, CD56− cells, read-out: WaGa CRISPR CD56 n = 3 IC50
Experimental: (§1) To evaluate cell viability and cellular metabolic activity, XTT assays were performed according to standard protocols. WaGa, PeTa, H69, H209, H660 cell lines were plated in 3 replicates in a 96-well plate with 5.10^4 cells/well. […] Untreated cells were used as viability reference. Cells treated with 1% Triton X100 were used as cell death positive control. After 4 days, 25 μL XTT reagent at 1 mg/mL (Alfa Aesar, thermo Fisher) with N-methyl dibenzopyrazine methyl sulfate (PMS) activator (25 μM) was added per well and absorbance was measured at 450 nm after 4 h incubation. Absorbance at 620 nm was used as a reference. Three independent experiments have been performed.

[3] = test system: H69; conditions: 4 days, read-out: H69 n = 3 IC50
Experimental: as §1

[4] = test system: PeTa; conditions: 4 days, read-out: PeTa n = 3 IC50
Experimental: as §1

[5] = test system: WaGa; conditions: 4 days, read-out: WaGa n = 3 IC50
Experimental: as §1

[6] = test system: H209; conditions: 4 days, read-out: H209 n = 3 IC50
Experimental: as §1

## CC[C@H](C)[C@@H]([C@@H](CC(=O)N1CCC[C@H]1[C@H](OC)[C@@H](C)C(=O)N[C@H](C)[C@@H](O)c1ccccc1)OC)N(C)C(=O)[C@@H](NC(=O)[C@@H](NC)C(C)C)C(C)C [MMAE, monomethyl auristatin E, reference compound] (H-[NMeV]V[Dil][Dolaproine]-X1)
[1]
  IC50: 0.856 nM
[2]
  IC50: 0.942 nM
[3]
  IC50: 0.888 nM
[4]
  IC50: 1.11 nM
[5]
  IC50: 3.07 nM
[6]
  IC50: 2.24 nM
